Reference: PubChem BioAssay (NCI)
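Briefly, cells in 96-well plates were exposed to five compound concentrations for 48 h, and endpoints were estimated by linear interpolation. Abbreviation: GI50, concentration required for 50% inhibition of growth. At the TGI there is no net growth.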

What was measured:
Test in all cases: NCI tumour cell line growth inhibition, 48 h
NCI-H23 lung = test system: NCI-H23 lung
NCI-H460 lung = test system: NCI-H460 lung
NCI-H522 lung = test system: NCI-H522 lung
NCI/ADR-RES ovarian = test system: NCI/ADR-RES ovarian
OVCAR-3 ovarian = test system: OVCAR-3 ovarian
OVCAR-4 ovarian = test system: OVCAR-4 ovarian
OVCAR-5 ovarian = test system: OVCAR-5 ovarian
OVCAR-8 ovarian = test system: OVCAR-8 ovarian
PC-3 prostate = test system: PC-3 prostate
RPMI-8226 leukemia = test system: RPMI-8226 leukemia
RXF 393 renal = test system: RXF 393 renal
SF-268 CNS = test system: SF-268 CNS
SF-295 CNS = test system: SF-295 CNS
SF-539 CNS = test system: SF-539 CNS
SK-MEL-2 melanoma = test system: SK-MEL-2 melanoma
SK-MEL-28 melanoma = test system: SK-MEL-28 melanoma
SK-MEL-5 melanoma = test system: SK-MEL-5 melanoma
SK-OV-3 ovarian = test system: SK-OV-3 ovarian
SN12C renal = test system: SN12C renal
SNB-19 CNS = test system: SNB-19 CNS
SNB-75 CNS = test system: SNB-75 CNS
SR leukemia = test system: SR leukemia
SW-620 colon = test system: SW-620 colon
T-47D breast = test system: T-47D breast
TK-10 renal = test system: TK-10 renal
U251 CNS = test system: U251 CNS
UACC-257 melanoma = test system: UACC-257 melanoma
UACC-62 melanoma = test system: UACC-62 melanoma
UO-31 renal = test system: UO-31 renal

Compound: COc1ccc(C[n+]2c3ccccc3n3c4ccc(N)cc4ccc32)c(OC)c1OC
- TGI (NCI-H23 lung): 24.9 µM
- GI50 (NCI-H460 lung): 3.54 µM
- TGI (NCI-H460 lung): 18.2 µM
- GI50 (NCI-H522 lung): 2.08 µM
- TGI (NCI-H522 lung): 15.7 µM
- GI50 (NCI/ADR-RES ovarian): > 100 µM
- TGI (NCI/ADR-RES ovarian): > 100 µM
- GI50 (OVCAR-3 ovarian): 1.69 µM
- TGI (OVCAR-3 ovarian): 8.97 µM
- GI50 (OVCAR-4 ovarian): 2.27 µM
- TGI (OVCAR-4 ovarian): 31.9 µM
- GI50 (OVCAR-5 ovarian): 12.1 µM
- TGI (OVCAR-5 ovarian): 78.5 µM
- GI50 (OVCAR-8 ovarian): 6.48 µM
- TGI (OVCAR-8 ovarian): 32.5 µM
- GI50 (PC-3 prostate): 1.82 µM
- TGI (PC-3 prostate): 13.7 µM
- GI50 (RPMI-8226 leukemia): 0.512 µM
- TGI (RPMI-8226 leukemia): 7.64 µM
- GI50 (RXF 393 renal): 6.3 µM
- TGI (RXF 393 renal): 21.9 µM
- GI50 (SF-268 CNS): 2.42 µM
- TGI (SF-268 CNS): 15.5 µM
- GI50 (SF-295 CNS): 4.22 µM
- TGI (SF-295 CNS): 38.1 µM
- GI50 (SF-539 CNS): 2.89 µM
- TGI (SF-539 CNS): 15.2 µM
- GI50 (SK-MEL-2 melanoma): 3.78 µM
- TGI (SK-MEL-2 melanoma): 14.8 µM
- GI50 (SK-MEL-28 melanoma): 1.89 µM
- TGI (SK-MEL-28 melanoma): 5.56 µM
- GI50 (SK-MEL-5 melanoma): 1.44 µM
- TGI (SK-MEL-5 melanoma): 7.27 µM
- GI50 (SK-OV-3 ovarian): 10.4 µM
- TGI (SK-OV-3 ovarian): 49.2 µM
- GI50 (SN12C renal): 0.626 µM
- TGI (SN12C renal): 11 µM
- GI50 (SNB-19 CNS): 1.42 µM
- TGI (SNB-19 CNS): 15.8 µM
- GI50 (SNB-75 CNS): 1.45 µM
- TGI (SNB-75 CNS): 10.8 µM
- GI50 (SR leukemia): 2.75 µM
- TGI (SR leukemia): 19.2 µM
- GI50 (SW-620 colon): 8.39 µM
- TGI (SW-620 colon): 36.5 µM
- GI50 (T-47D breast): 1.42 µM
- TGI (T-47D breast): 7.03 µM
- GI50 (TK-10 renal): 22.4 µM
- TGI (TK-10 renal): 79.4 µM
- GI50 (U251 CNS): 1.7 µM
- TGI (U251 CNS): 14.5 µM
- GI50 (UACC-257 melanoma): 2.56 µM
- TGI (UACC-257 melanoma): 8.02 µM
- GI50 (UACC-62 melanoma): 2.62 µM
- TGI (UACC-62 melanoma): 10.9 µM
- GI50 (UO-31 renal): 40.1 µM
- TGI (UO-31 renal): > 100 µM
